# Source: patent publication US5760276A, “Aryl-and heteroarylcyclohexenyl substituted alkenes having retinoid agonist, antagonist or inverse agonist type biological activity” (Allergan, priority 1997, dated 1998)
# Legend:
# RARγ -VP-16 = assay: Retinoid inverse agonist assay: inhibition of basal luciferase activity of RARγ-VP-16 chimeric receptor in cotransfected CV-1 cells; type: cell-based; details: CV-1 cells cotransfected with RARγ -VP-16, ER-RXRα chimeric receptor and ERE-tk-Luc reporter
# Description: Inverse agonists are ligands that are capable of inhibiting the basal receptor activity of unliganded receptors. […] Moreover, the biological effects associated with retinoid inverse agonists are distinct from those of retinoid agonists or antagonists. For example, RAR inverse agonists, but not RAR neutral antagonists, cause a dose-dependent inhibition of the protein MRP-8 in cultured human keratinocytes differentiated with serum. MRP-8 is a specific marker of cell differentiation, which is also highly expressed in psoriatic epidermis, but is not detectable in normal human skin. Thus, retinoid inverse agonists may offer a unique way of treating diseases such as psoriasis.
# The activity of retinoid inverse agonists can be tested by the procedure of Klein et al. J. Biol. Chem. 271, 22692-22696 (1996) which is expressly incorporated herein by reference.
# In this assay, retinoid inverse agonists are able to repress the basal activity of a […] -VP-16 chimeric receptor where the constituitively active domain of the herpes simplex virus (HSV) VP-16 is fused to the N-terminus of RARγ. […] Retinoid inverse agonists are able to inhibit the basal luciferase activity in these cells in a dose dependent manner and IC50 s measured.
# RARα = target: T1, RARα (Homo sapiens, UniProt P10276); assay: Ligand binding assay, RARα
# T1 sequence (P10276 1-462): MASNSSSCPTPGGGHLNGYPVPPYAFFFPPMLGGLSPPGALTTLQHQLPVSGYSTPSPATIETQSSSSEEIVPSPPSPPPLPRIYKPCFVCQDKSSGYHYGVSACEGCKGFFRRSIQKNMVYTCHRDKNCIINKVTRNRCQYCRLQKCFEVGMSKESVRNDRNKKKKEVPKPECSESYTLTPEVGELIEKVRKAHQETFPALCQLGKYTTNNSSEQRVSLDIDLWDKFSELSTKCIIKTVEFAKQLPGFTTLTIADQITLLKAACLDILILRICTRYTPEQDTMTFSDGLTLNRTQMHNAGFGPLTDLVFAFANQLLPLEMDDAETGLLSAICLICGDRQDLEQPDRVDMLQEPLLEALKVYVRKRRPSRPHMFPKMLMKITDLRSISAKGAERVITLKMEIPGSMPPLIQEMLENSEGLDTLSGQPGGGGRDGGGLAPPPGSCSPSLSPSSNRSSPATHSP
# Description: (§1) Other assays described below, measure the ability of the compounds of the present invention to bind to, and/or activate various retinoid receptor subtypes. When in these assays a compound binds to a given receptor subtype and activates the transcription of a reporter gene through that subtype, then the compound is considered an agonist of that receptor subtype. […] In the below described assays the ability of the compounds to bind to RARα, RARβ, RARγ, RXRα, RXRβ and RXRγ receptors, and the ability or inability of the compounds to activate transcription of a reporter gene through these receptor subtypes can be tested.
# (§2) A holoreceptor transactivation assay and a ligand binding assay which measure the antagonist/agonist like activity of the compounds of the invention, or their ability to bind to the several retinoid receptor subtypes, respectively, are described in published PCT Application No. WO WO93/11755 (particularly on pages 30-33 and 37-41) published on Jun. 24, 1993, the specification of which is also incorporated herein by reference. A description of the holoreceptor transactivation assay is also provided below.
# (§3) CV1 cells (5,000 cells/well) were transfected with an RAR reporter plasmid MTV-TREp-LUC (50 ng) along with one of the RAR expression vectors (10 ng) in an automated 96-well format by the calcium phosphate procedure of Heyman et al. Cell 68, 397-406, (1992). For RXRα and RXRγ transactivation assays, an RXR-responsive reporter plasmid CRBPII-tk-LUC (50 ng) along with the appropriate RXR expression vectors (10 ng) was used substantially as described by Heyman et al. above, and Allegretto et al. J. Biol. Chem. 268, 26625-26633. For RXRβ transactivation assays, an RXR-responsive reporter plasmid CPRE-tk-LUC ([…]) along with RXRβ expression vector ([…]) was used as described in above. These reporters contain DRI elements from human CRBPII and certain DRI elements from promoter, respectively. (see Mangelsdorf et al. The Retinoids: Biology, Chemistry and Medicine, pp 319-349, Raven Press Ltd., New York and Heyman et al., cited above) (1, 8). A β-galactosidase (50 ng) expression vector was used as an internal control in the transfections to normalize for variations in transfection efficiency. The cells were transfected in triplicate for 6 hours, followed by incubation with retinoids for 36 hours, and the extracts were assayed for luciferase and β-galactosidase activities. The detailed experimental procedure for holoreceptor transactivations has been described in Heyman et al. and Allegretto et al., cited above. The results obtained in this assay are expressed in EC50 numbers, as they are also in the chimeric receptor transactivation assay. The Heyman et al. Cell 68, 397-406, Allegretto et al. J. Biol. Chem. 268, 26625-26633, and Mangelsdorf et al. The Retinoids: Biology, Chemistry and Medicine, pp 319-349, Raven Press Ltd., New York, are expressly incorporated herein by reference. The results of ligand binding assay are expressed in Kd numbers. (See Cheng et al. Biochemical Pharmacology Vol. 22 pp 3099-3108, expressly incorporated herein by reference.)
# RARβ = target: T2, RARβ (Homo sapiens, UniProt P10826); assay: Ligand binding assay, RARβ
# T2 sequence (P10826 1-455): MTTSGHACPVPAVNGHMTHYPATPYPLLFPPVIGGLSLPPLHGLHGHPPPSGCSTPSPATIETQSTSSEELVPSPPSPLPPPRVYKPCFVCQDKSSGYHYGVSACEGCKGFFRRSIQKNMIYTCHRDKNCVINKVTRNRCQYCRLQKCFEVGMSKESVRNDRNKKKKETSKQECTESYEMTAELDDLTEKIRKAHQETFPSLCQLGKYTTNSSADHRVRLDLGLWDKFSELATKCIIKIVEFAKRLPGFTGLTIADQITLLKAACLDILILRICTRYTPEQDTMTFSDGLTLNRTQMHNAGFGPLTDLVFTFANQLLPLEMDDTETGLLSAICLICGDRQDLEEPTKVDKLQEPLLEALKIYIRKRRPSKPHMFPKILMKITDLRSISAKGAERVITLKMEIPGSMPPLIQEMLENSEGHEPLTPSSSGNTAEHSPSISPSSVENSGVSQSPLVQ
# Description: as §1, §2, §3
# RARγ = target: T3, RARγ (Homo sapiens, UniProt P13631); assay: Ligand binding assay, RARγ
# T3 sequence (P13631 1-454): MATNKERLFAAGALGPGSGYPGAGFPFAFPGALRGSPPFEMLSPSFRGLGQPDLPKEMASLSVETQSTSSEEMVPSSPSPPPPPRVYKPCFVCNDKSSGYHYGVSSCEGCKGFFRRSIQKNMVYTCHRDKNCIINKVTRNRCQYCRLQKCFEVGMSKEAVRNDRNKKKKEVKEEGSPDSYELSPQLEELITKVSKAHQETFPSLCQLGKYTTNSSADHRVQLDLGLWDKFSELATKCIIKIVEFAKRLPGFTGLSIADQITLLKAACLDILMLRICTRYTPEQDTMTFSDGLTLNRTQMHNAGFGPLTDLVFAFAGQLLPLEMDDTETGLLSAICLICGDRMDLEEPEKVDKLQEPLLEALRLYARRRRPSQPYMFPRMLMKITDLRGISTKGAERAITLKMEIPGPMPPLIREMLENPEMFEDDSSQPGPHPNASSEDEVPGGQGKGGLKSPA
# Description: Other assays described below, measure the ability of the compounds of the present invention to bind to, and/or activate various retinoid receptor subtypes. When in these assays a compound binds to a given receptor subtype and activates the transcription of a reporter gene through that subtype, then the compound is considered an agonist of that receptor subtype. […] In the below described assays the ability of the compounds to bind to RARα, RARβ, RARγ, RXRα, RXRβ and […]. receptors, and the ability or inability of the compounds to activate transcription of a reporter gene through these receptor subtypes can be tested. A holoreceptor transactivation assay and a ligand binding assay which measure the antagonist/agonist like activity of the compounds of the invention, or their ability to bind to the several retinoid receptor subtypes, respectively, are described in published PCT Application No. […] A description of the holoreceptor transactivation assay is also provided below. […] Cell 68, 397-406, (1992). For RXRα and RXRγ transactivation assays, an RXR-responsive reporter plasmid CRBPII-tk-LUC (50 ng) along with the appropriate RXR expression vectors (10 ng) was used substantially as described by Heyman et al. above, and Allegretto et al. J. Biol. Chem. 268, 26625-26633. […] These reporters contain DRI elements from human CRBPII and certain DRI elements from promoter, respectively. (see Mangelsdorf et al. The Retinoids: Biology, Chemistry and Medicine, pp 319-349, Raven Press Ltd., New York and Heyman et al., cited above) (1, 8). A β-galactosidase (50 ng) expression vector was used as an internal control in the transfections to normalize for variations in transfection efficiency. The cells were transfected in triplicate for 6 hours, followed by incubation with retinoids for 36 hours, and the extracts were assayed for luciferase and β-galactosidase activities. The detailed experimental procedure for holoreceptor transactivations has been described in Heyman et al. and Allegretto et al., cited above. The results obtained in this assay are expressed in EC50 numbers, as they are also in the chimeric receptor transactivation assay. The Heyman et al. Cell 68, 397-406, Allegretto et al. J. Biol. Chem. 268, 26625-26633, and Mangelsdorf et al. The Retinoids: Biology, Chemistry and Medicine, pp 319-349, Raven Press Ltd., New York, are expressly incorporated herein by reference. The results of ligand binding assay are expressed in Kd numbers.
IC50 (RARγ -VP-16) [nM],Kd (RARα) [nM],Kd (RARβ) [nM],Kd (RARγ) [nM],Structure (SMILES)
1,–,–,–,"CCOC(=O)c1ccc(C#C/C=C/C2C(c3ccc(C)cc3)=CCCC2(C)C)cc1 (racemic) [Compound 10, Ethyl (±)-(E)-4-(4-(2-(4-Methylphenyl)-4,4-dimethylcyclohexen-3-yl)but-3-en-1-yn-1-yl)benzoate]"
–,454,24,98,"Cc1ccc(C2=CCCC(C)(C)C2/C=C/C#Cc2ccc(C(=O)O)cc2)cc1 (racemic) [Compound 14, (±)-(E)-4-(4-(2-(4-Methylphenyl)-4,4-dimethylcyclohexen-3-yl)but-3-en-1-yn-1-yl)benzoic acid]"
–,148,6,21,"Cc1ccc(C2=C(/C=C/C#Cc3ccc(C(=O)O)cc3)C(C)(C)CCC2)cc1 [Compound 13, (E)-4-(4-(1-(4-Methylphenyl)-3,3-dimethylcyclohexen-2-yl)but-3-en-1-yn-1-yl)benzoic Acid]"
–,136,4,36,"CCc1ccc(C2=C(/C=C/C#Cc3ccc(C(=O)O)cc3)C(C)(C)CCC2)cc1 [Compound 15, (E)-4-(4-(1-(4-Ethylphenyl)-3,3-dimethylcyclohexen-2-2l)but-3-en-1-yn-1-yl)benzoic acid]"
–,875,13,333,"CC1(C)CCCC(c2ccc(C(C)(C)C)cc2)=C1/C=C/C#Cc1ccc(C(=O)O)cc1 [Compound 16, (E)-4-(4-(1-(4-tert-butylphenyl)-3,3-dimethylcyclohexen-2-yl)but-3-en-1-yn-1-yl)benzoic acid]"
–,134,48,33,"Cc1ccc(C2=CCC(C)(C)C=C2/C=C/C#Cc2ccc(C(=O)O)cc2)cc1 [Compound 24, (E)-4-(4-(2-(4-Methylphenyl)-5,5-dimethyl-1,3-cyclohexadien-3-yl)but-3-ene-1-yn-1-yl)benzoic Acid]"
